{"source": "patent US20240165055A1", "about": "“TREATMENT” (Verona Pharma PLC, priority 2022, published 2024)", "test_system": "patients with moderate to severe COPD", "assay": "Multi-centre, randomized, double-blind, placebo-controlled clinical study of nebulised ensifentrine in COPD (spirometry, FEV1)", "format": "in vivo", "details": "3 mg BID by nebuliser", "procedure": "A clinical study was conducted to determine the efficacy of ensifentrine in treating COPD compared with placebo. Ensifentrine was administered by nebuliser at a dose of 3 mg twice daily (BID) for 24 weeks. The study was a multi-centre, randomized, double-blind, parallel-group, placebo-controlled trial with around 800 patients and 5:3 randomization.\nThe study population included patients aged 40-80 years with moderate to severe COPD (FEV130%-70% p.n., FEVi/forced vital capacity [FVC] ratio <0.7, with mMRC ≥2). The randomization stratified (a) the use of stable background maintenance LAMA or LABA therapy use (approx. 50%. yes or no) and (b) cigarette smoking (current or former). Inhaled corticosteroid (ICS) maintenance therapy was permitted in up to 20% of patients under certain provisions.\nThe primary endpoint of the study was change from baseline in average FEV1 area under the curve (AUC)0-12h post-dose at week 12. Secondary endpoints of the study included: peak FEV1 over 4 hours post-dose at Week 12; morning trough FEV1 at Week 12; and other endpoints including moderate/severe COPD exacerbations frequency over 24 Weeks.\nBaseline FEV1 is the mean of the two measurements taken before study medication on the day of first dosing, i.e. ≤40 minutes and just prior to dosing, pre-dose on day 1.\nAverage FEV1 AUCO-12h is defined as area under the curve over 12 hours of the FEV1, divided by 12 hours.\nMorning trough FEV1 at Week 12 is defined as the FEVi assessed at 11.5 to 12 hours following the prior evening dose.\nThe investigational product and placebo were provided in 2.5 mL unit dose format in an ampule and administered via a nebuliser."}
{"smiles": "COc1cc2c(cc1OC)-c1c/c(=N\\c3c(C)cc(C)cc3C)n(CCNC(N)=O)c(=O)n1CC2", "note": "[Ensifentrine]", "values": [{"measurement": "Morning Trough FEV1 Week 12: CFB Least Squares Mean, mL (95% CI)", "setting": "Week 12, FEV1 at 11.5 to 12 hours following the prior evening dose", "value": "6.3 (−12.3, 24.9) mL"}, {"measurement": "Morning Trough FEV1 Week 12: Placebo-corrected CFB LS Mean Diff., mL (95% CI)", "setting": "Week 12, versus placebo", "value": "48.9 (18.3, 79.5) mL"}, {"measurement": "Improvement in lung function in all subgroups (average FEV1 (AUC)0-12h at Week 12), result in words", "setting": "all subgroups", "value": "All subgroups showed improvement in lung function with ensifentrine that was statistically significant"}, {"measurement": "Morning trough FEV1 at week 12, result in words", "setting": "week 12", "value": "statistically significant effect"}]}
